Measured values from patent US11584763B2, “Chromenopyridine derivatives as phosphatidylinositol phosphate kinase inhibitors” (HIBERCELL, INC., priority 2017, dated 2023).

Experiments:
Format in all cases: biochemical
PIP4K 2A [1] = molecular target: T1, PIP4K 2A (Homo sapiens, UniProt P48426); assay: Kinase Assay PIP4K2 A (PIP4KtypeIIA inhibition assay); set-up: made in house; host or cells: E. coli; conditions: compounds listed under IC50 bin headings
T1 sequence (P48426 1-406): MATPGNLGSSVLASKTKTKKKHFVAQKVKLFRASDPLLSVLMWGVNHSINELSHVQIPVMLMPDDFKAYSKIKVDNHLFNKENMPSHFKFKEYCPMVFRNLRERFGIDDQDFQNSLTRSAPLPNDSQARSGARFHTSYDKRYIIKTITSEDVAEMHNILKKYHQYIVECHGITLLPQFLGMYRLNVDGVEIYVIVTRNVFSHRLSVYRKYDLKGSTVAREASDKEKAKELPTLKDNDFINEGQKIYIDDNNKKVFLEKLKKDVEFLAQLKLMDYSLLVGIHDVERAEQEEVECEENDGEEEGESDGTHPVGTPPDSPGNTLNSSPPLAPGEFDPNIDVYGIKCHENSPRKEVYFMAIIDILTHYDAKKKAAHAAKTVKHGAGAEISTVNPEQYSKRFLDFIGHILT
Summary of the method: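 GST-tagged enzyme from E. coli at 0.5 nM final was preincubated with compound for 1 h at 27 C, then reacted with 10 uM ATP, 80 uM PI5P and DOPE carrier in 50 mM HEPES pH 7.3, 5% DMSO. After 1 h, ADP was measured by ADP-Glo luminescence against a calibration curve. IC50 was fitted from % residual activity.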

PIP4K 2A [2] = molecular target: T1, PIP4K 2A; assay: ADP-glo kinase assay PIP4K 2A; set-up: 4 nM PIP4K2A (full length protein, SignalChem); purchased SignalChem; conditions: compounds listed under IC50 bin headings
Summary of the method: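 Full-length PIP4K2A was pre-incubated 15 min at RT with compound in 20 mM MOPS pH 7.2, 25 mM MgCl2, 0.005% Tween 20. The enzyme mix held 4 nM kinase and 100 μM PI(5)P diC8, and ATP was added from a 60 μM solution. After 1 h at RT, ADP-Glo luminescence gave % inhibition versus DMSO, fitted to IC50 over 10 threefold dilutions.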

PIP4K2B = molecular target: T2, PIP4K2B (Homo sapiens, UniProt P78356); assay: Trans-FI P kinase assay PIP4K2B (PIP4KtypeIIB inhibition assay); conditions: compounds listed under IC50 bin headings; 100 uM GTP; read-out: Trans-FI P kinase assays: PIP4K2B IC50
T2 construct: made in house; host or cells: E. coli
T2 sequence (P78356 1-416): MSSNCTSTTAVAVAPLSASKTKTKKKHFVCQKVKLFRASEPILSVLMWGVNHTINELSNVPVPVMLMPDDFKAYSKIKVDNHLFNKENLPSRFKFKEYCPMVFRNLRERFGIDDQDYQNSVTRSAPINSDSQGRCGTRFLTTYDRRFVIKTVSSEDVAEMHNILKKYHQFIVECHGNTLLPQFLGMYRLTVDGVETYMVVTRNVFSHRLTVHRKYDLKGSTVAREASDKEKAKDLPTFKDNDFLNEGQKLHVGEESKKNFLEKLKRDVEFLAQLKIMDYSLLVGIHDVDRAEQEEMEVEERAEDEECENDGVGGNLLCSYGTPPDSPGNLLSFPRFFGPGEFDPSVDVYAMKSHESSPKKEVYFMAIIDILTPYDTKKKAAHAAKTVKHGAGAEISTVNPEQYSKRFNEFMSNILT
Summary of the method: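 GST-tagged human PIP4K2B (5 nM, E. coli-expressed) preincubated 1 h at 27 C with compound (top 4.8 uM, 5% DMSO), then reacted 2 h with 100 uM GTP and 80 uM PI5P/DOPE vesicles in HEPES pH 7.3, MgCl2, Triton X-100. GDP detected by Transcreener FI fluorescence via calibration curve; IC50 from % activity vs log[inhibitor].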

Row | SMILES | IC50 (PIP4K 2A [1]) | IC50 (PIP4K 2A [2]) | IC50 (PIP4K2B)
1 | CC1Oc2cc(C(=O)N(C)C)ccc2-c2cnc(Nc3cnc4c(c3)N3C(=O)CC[C@H]3CO4)cc21 (stereo partly drawn) [Example 33, N,N,5-trimethyl-3-(((S)-9-oxo-6a,7,8,9-tetrahydro-6H-pyrido[2,3-b]pyrrolo[1,2-d][1,4]oxazin-2-yl)amino)-5H-chromeno[4,3-c]pyridine-8-carboxamide] | ≤ 0.001 µM | 0.001 to 0.01 µM | 0.001 to 0.01 µM
2 | CC1Oc2cc(N3CCCC3=O)ccc2-c2cnc(Nc3cnc4c(c3)OCCO4)cc21 (stereo not drawn) [Example 62, 1-(3-((2,3-dihydro-[1,4]dioxino[2,3-b]pyridin-7-yl)amino)-5-methyl-5H-chromeno[4,3-c]pyridin-8-yl)pyrrolidin-2-one] | ≤ 0.001 µM | 0.001 to 0.01 µM | 0.01 to 0.1 µM
3 | CC1Oc2cc(N3CCCC3=O)ccc2-c2cnc(Nc3cnc4c(c3)N(C(=O)C3(O)CC3)CCO4)cc21 (stereo not drawn) [Example 58, 1-(3-((1-(1-hydroxycyclopropane-1-carbonyl)-2,3-dihydro-1H-pyrido[2,3-b][1,4]oxazin-7-yl)amino)-5-methyl-5H-chromeno[4,3-c]pyridin-8-yl)pyrrolidin-2-one] | ≤ 0.001 µM | ≤ 0.001 µM | 0.001 to 0.01 µM
4 | CC1Oc2cc(N3CCCC3=O)ccc2-c2cnc(Nc3cnc4c(c3)N(S(C)(=O)=O)CCO4)cc21 (stereo not drawn) [Example 49, 1-(5-methyl-3-((1-(methylsulfonyl)-2,3-dihydro-1H-pyrido[2,3-b][1,4]oxazin-7-yl)amino)-5H-chromeno[4,3-c]pyridin-8-yl)pyrrolidin-2-one] | ≤ 0.001 µM | 0.001 to 0.01 µM | 0.1 to 1 µM
5 | CC1c2cc(Nc3cnc4c(c3)OCCO4)ncc2-c2ccc(N3CCCC3=O)cc2N1C (stereo not drawn) [Example 45, 1-(3-((2,3-dihydro-[1,4]dioxino[2,3-b]pyridin-7-yl)amino)-5,6-dimethyl-5,6-dihydrobenzo[c][2,6]naphthyridin-8-yl)pyrrolidin-2-one] | 0.001 to 0.01 µM | 0.01 to 0.1 µM | 0.1 to 1 µM
6 | COc1ncc(Nc2cc3c(cn2)-c2ccc(N4CCCC4=O)cc2OC3C)cc1NC(C)=O (stereo not drawn) [Example 87, N-(2-methoxy-5-((5-methyl-8-(2-oxopyrrolidin-1-yl)-5H-chromeno[4,3-c]pyridin-3-yl)amino)pyridin-3-yl)acetamide] | 0.001 to 0.01 µM | 0.001 to 0.01 µM | 0.01 to 0.1 µM
7 | CC1Oc2cc(N3CCCC3=O)ccc2-c2cnc(Nc3cncc(N(C4CC4)S(C)(=O)=O)c3)cc21 (stereo not drawn) [Example 51, N-cyclopropyl-N-(5-((5-methyl-8-(2-oxopyrrolidin-1-yl)-5H-chromeno[4,3-c]pyridin-3-yl)amino)pyridin-3-yl)methanesulfonamide] | ≤ 0.001 µM | 0.001 to 0.01 µM | 0.01 to 0.1 µM
8 | O=C1CCCN1c1ccc2c(c1)OCc1cc(Nc3cnc4c(c3)N3C(=O)CC[C@H]3CO4)ncc1-2 [Example 75, (S)-2-((8-(2-oxopyrrolidin-1-yl)-5H-chromeno[4,3-c]pyridin-3-yl)amino)-6,6a,7,8-tetrahydro-9H-pyrido[2,3-b]pyrrolo[1,2-d][1,4]oxazin-9-one] | ≤ 0.001 µM | ≤ 0.001 µM | 0.001 to 0.01 µM
9 | CC1Oc2cc(N3CCCC3=O)c(F)cc2-c2cnc(Nc3cccnc3)cc21 (stereo not drawn) [Example 46, 1-(9-fluoro-5-methyl-3-(pyridin-3-ylamino)-5H-chromeno[4,3-c]pyridin-8-yl)pyrrolidin-2-one] | 0.001 to 0.01 µM | 0.01 to 0.1 µM | 0.1 to 1 µM
10 | CN(C)C(=O)c1ccc2c(c1)OC(C1CC1)c1cc(Nc3cncc(N4CCCC4=O)c3)ncc1-2 (stereo not drawn) [Example 35, 5-cyclopropyl-N,N-dimethyl-3-((5-(2-oxopyrrolidin-1-yl)pyridin-3-yl)amino)-5H-chromeno[4,3-c]pyridine-8-carboxamide] | ≤ 0.001 µM | 0.001 to 0.01 µM | 0.001 to 0.01 µM
11 | CC1Oc2cc(N3CCCC3=O)ccc2-c2cnc(Nc3cnc4c(c3)NC(=O)CO4)cc21 (stereo not drawn) [Example 93, 7-((5-methyl-8-(2-oxopyrrolidin-1-yl)-5H-chromeno[4,3-c]pyridin-3-yl)amino)-1H-pyrido[2,3-b][1,4]oxazin-2(3H)-one] | 0.001 to 0.01 µM | 0.01 to 0.1 µM | 0.1 to 1 µM
12 | CC1Oc2cc(N3CCCC3=O)ccc2-c2cnc(Nc3cncc(S(C)(=O)=O)c3)cc21 (stereo not drawn) [Example 91, 1-(5-methyl-3-((5-(methylsulfonyl)pyridin-3-yl)amino)-5H-chromeno[4,3-c]pyridin-8-yl)pyrrolidin-2-one] | 0.01 to 0.1 µM | 0.01 to 0.1 µM | > 1 µM
13 | O=C1CCCN1c1ccc2c(c1)OCc1cc(Nc3cnc4c(c3)N(C(=O)C3CC3)CCO4)ncc1-2 [Example 76, 1-(3-((1-(cyclopropanecarbonyl)-2,3-dihydro-1H-pyrido[2,3-b][1,4]oxazin-7-yl)amino)-5H-chromeno[4,3-c]pyridin-8-yl)pyrrolidin-2-one] | ≤ 0.001 µM | ≤ 0.001 µM | 0.001 to 0.01 µM

Next, values leading:

Row | IC50 (PIP4K 2A [1]) | IC50 (PIP4K 2A [2]) | IC50 (PIP4K2B) | SMILES
14 | 0.001 to 0.01 µM | 0.001 to 0.01 µM | 0.01 to 0.1 µM | CC1Oc2cc(N3CCCC3=O)ccc2-c2cnc(Nc3cnc4c(c3)NCCO4)cc21 (stereo not drawn) [Example 94, 1-(3-((2,3-dihydro-1H-pyrido[2,3-b][1,4]oxazin-7-yl)amino)-5-methyl-5H-chromeno[4,3-c]pyridin-8-yl)pyrrolidin-2-one]
15 | 0.001 to 0.01 µM | ≤ 0.001 µM | 0.001 to 0.01 µM | O=C1CCCN1c1ccc2c(c1)OC1(COC1)c1cc(Nc3cnc4c(c3)N3C(=O)CC[C@H]3CO4)ncc1-2 [Example 194, (S)-2-((8-(2-oxopyrrolidin-1-yl)spiro[chromeno[4,3-c]pyridine-5,3′-oxetan]-3-yl)amino)-6,6a,7,8-tetrahydro-9H-pyrido[2,3-b]pyrrolo[1,2-d][1,4]oxazin-9-one]
16 | 0.001 to 0.01 µM | 0.01 to 0.1 µM | 0.1 to 1 µM | CC1Oc2cc(N3CCCC3=O)ccc2-c2cnc(Nc3cncc(N4CCOCC4=O)c3)cc21 (stereo not drawn) [Example 95, 4-(5-((5-methyl-8-(2-oxopyrrolidin-1-yl)-5H-chromeno[4,3-c]pyridin-3-yl)amino)pyridin-3-yl)morpholin-3-one]
17 | 0.01 to 0.1 µM | 0.1 to 1 µM | > 1 µM | CC1Oc2cc(N3CCCC3=O)ccc2-c2cnc(Nc3ccnnc3)cc21 (stereo not drawn) [Example 127, 1-(5-methyl-3-(pyridazin-4-ylamino)-5H-chromeno[4,3-c]pyridin-8-yl)pyrrolidin-2-one]
18 | ≤ 0.001 µM | 0.01 to 0.1 µM | 0.01 to 0.1 µM | CC(=O)Nc1cncc(Nc2cc3c(cn2)-c2ccc(N4CCCC4=O)cc2OC3C)c1 (stereo not drawn) [Example 100, N-(5-((5-methyl-8-(2-oxopyrrolidin-1-yl)-5H-chromeno[4,3-c]pyridin-3-yl)amino)pyridin-3-yl)acetamide]
19 | ≤ 0.001 µM | ≤ 0.001 µM | 0.001 to 0.01 µM | O=C1CCCN1c1ccc2c(c1)OC1(CCC1)c1cc(Nc3cnc4c(c3)N3C(=O)CC[C@H]3CO4)ncc1-2 [Example 195, (S)-2-((8-(2-oxopyrrolidin-1-yl)spiro[chromeno[4,3-c]pyridine-5,1′-cyclobutan]-3-yl)amino)-6,6a,7,8-tetrahydro-9H-pyrido[2,3-b]pyrrolo[1,2-d][1,4]oxazin-9-one]
20 | ≤ 0.001 µM | 0.001 to 0.01 µM | 0.01 to 0.1 µM | CC1(C)Oc2cc(N3CCCC3=O)c(F)cc2-c2cnc(Nc3cncc(N4CCNC4=O)c3)cc21 [Example 149, 1-(5-((9-fluoro-5,5-dimethyl-8-(2-oxopyrrolidin-1-yl)-5H-chromeno[4,3-c]pyridin-3-yl)amino)pyridin-3-yl)imidazolidin-2-one]
